From ChEMBL document CHEMBL1135370, “Selective urokinase-type plasminogen activator (uPA) inhibitors. Part 2: (3-Substituted-5-halo-2-pyridinyl)guanidines” (Bioorg Med Chem Lett, 2002) come the findings set out here.

As a reminder, the Ki is a dissociation constant, usually derived from enzyme kinetics or from competition with a known ligand. By inhibition is commonly meant the share of the control response that was lost under treatment.

Assay [1] has as its target Urokinase-type plasminogen activator (Homo sapiens, UniProt P00749). The assay is described as follows: In vitro inhibition of human urokinase Plasminogen Activator.
The target of assay [2] is T1, Tissue-type plasminogen activator (Homo sapiens, UniProt P00750). As to the kind of experiment: Ability to inhibit tissue plasminogen activator (quadratech) and S-2444 as substrate.
Target sequence in this assay (P00750 whole entry): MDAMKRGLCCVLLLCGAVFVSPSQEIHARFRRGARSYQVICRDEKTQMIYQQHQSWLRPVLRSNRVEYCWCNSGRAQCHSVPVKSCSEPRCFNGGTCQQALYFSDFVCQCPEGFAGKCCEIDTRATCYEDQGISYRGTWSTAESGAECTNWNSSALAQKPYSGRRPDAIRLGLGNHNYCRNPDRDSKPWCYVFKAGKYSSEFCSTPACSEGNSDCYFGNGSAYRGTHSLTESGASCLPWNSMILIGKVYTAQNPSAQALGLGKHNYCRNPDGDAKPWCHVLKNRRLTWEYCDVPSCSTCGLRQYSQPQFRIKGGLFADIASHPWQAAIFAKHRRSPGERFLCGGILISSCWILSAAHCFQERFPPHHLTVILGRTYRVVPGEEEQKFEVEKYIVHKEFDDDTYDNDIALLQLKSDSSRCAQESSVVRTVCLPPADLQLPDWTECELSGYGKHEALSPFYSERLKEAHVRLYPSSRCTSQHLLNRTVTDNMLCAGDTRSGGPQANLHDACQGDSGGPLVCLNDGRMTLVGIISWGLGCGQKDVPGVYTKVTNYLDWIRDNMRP
Assay [3] has as its target T2, Plasminogen (Homo sapiens, UniProt P00747). As to the kind of experiment: In vitro inhibition of human plasmin. Also on record: concentration or dose not given beside the values. As to conditions: concentration not given here.
For assay [4], the target named is T1, Tissue-type plasminogen activator. The assay is described as follows: Ability to inhibit tissue plasminogen activator (quadratech) and S-2444 as substrate at concentration of 1 mM.
Target sequence in this assay (P00750 36-562 limits assumed): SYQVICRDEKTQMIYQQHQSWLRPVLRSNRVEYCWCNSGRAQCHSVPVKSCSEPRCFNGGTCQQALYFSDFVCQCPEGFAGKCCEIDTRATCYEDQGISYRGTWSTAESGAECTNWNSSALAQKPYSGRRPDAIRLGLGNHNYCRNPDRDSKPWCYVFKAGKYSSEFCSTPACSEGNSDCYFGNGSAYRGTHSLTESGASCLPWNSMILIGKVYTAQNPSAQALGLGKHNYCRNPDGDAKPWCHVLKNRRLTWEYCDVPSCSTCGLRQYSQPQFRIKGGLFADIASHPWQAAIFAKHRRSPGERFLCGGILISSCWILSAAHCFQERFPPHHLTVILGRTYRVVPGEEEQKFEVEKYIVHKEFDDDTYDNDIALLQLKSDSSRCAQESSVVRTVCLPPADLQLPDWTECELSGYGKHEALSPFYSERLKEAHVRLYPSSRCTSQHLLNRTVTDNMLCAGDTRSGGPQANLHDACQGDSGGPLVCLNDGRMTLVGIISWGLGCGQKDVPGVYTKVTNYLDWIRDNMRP
Assay [5] deals with T2, Plasminogen. The assay is described as follows: Ability to inhibit plasmin using human plasmin (quadratech) and Chromozym-PL (boehringer) as substrate.
Assay [6] concerns the target T2, Plasminogen. As to the kind of experiment: Ability to inhibit plasmin using human plasmin (quadratech) and Chromozym-PL (boehringer) as substrate at concentration of 100 uM.
Assay [7] addresses T1, Tissue-type plasminogen activator. The assay is described as follows: Ability to inhibit tissue plasminogen activator (quadratech) and S-2444 as substrate at concentration of 300 uM.
Target sequence in this assay (P00750 36-562 limits assumed): as above
The target of assay [8] is T2, Plasminogen. The assay is described as follows: Ability to inhibit human plasmin using Chromozym-PL as substrate at concentration of 1 uM.
The target of assay [9] is T1, Tissue-type plasminogen activator. As to the kind of experiment: Ability to inhibit human tissue plasminogen activator stimulator at concentration of 1 uM.
Target sequence in this assay (P00750 36-562 limits assumed): as above

T2 sequence (P00747 97-580 limits assumed): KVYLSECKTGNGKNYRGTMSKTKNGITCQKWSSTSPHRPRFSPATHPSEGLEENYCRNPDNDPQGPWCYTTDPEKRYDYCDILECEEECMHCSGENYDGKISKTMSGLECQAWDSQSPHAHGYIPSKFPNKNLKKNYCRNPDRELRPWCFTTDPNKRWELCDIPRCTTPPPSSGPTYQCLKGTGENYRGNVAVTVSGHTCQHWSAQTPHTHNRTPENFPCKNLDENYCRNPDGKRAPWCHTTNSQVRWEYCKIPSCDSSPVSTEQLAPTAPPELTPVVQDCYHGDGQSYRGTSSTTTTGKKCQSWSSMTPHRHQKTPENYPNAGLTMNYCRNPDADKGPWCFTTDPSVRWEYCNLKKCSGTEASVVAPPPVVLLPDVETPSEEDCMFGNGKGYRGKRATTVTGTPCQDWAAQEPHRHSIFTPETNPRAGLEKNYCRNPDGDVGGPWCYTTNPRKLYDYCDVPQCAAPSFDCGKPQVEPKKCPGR
T2 sequence (P00747 581-810 limits assumed): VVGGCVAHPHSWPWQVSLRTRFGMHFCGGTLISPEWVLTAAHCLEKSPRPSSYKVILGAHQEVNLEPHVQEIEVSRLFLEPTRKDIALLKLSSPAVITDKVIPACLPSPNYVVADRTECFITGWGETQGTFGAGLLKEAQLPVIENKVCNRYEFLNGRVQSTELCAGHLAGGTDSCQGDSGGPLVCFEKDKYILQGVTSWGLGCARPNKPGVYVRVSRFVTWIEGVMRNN

As to `N=C(N)Nc1ncc(Cl)cc1/C=C/c1ccccn1`, the Ki amounted to 1.6 µM in assay [1] and 258 µM in assay [2]. Besides, in assay [3], the inhibition is under 50%.

With `COCCOc1cc(Cl)cnc1N=C(N)N`, the inhibition in assay [4] and in [3] was under 50% throughout. Moreover, the affinity in [1] corresponds to a Ki of 16.4 µM.

Turning to `N=C(N)Nc1ncc(Cl)cc1OCc1ccccc1`, the inhibition in assay [4] and in assay [3] was under 50% each time. This compound registered an inhibitory constant (Ki) in assay [1] of 0.92 µM.

For the compound `N=C(N)Nc1ncc(Cl)cc1/C=C/C(=O)NCc1ccccc1`, the inhibition in assay [4] and in [3] was under 50% each time. The same compound displayed a Ki in assay [1] of 0.77 µM.

Turning to `N=C(N)Nc1ncc(Cl)cc1C#Cc1ccccc1`, the inhibitory constant (Ki) in assay [2] turned out to be 65.9 µM; in assay [5] it was 218 µM.

In turn, `NC(N)=Nc1ncc(Cl)cc1OCC(=O)NCc1ccccc1` yielded a Ki in assay [1] of 16.1 µM.

Turning to `N=C(N)Nc1ncc(Cl)cc1/C=C/c1cccc(C(=O)O)c1`, the inhibition in [6] was under 50%.

Compound `N=C(N)Nc1ncc(Cl)cc1/C=C/c1ccc2c(c1)OCO2` yielded an inhibition constant Ki in assay [1] of 0.49 µM. Besides, the results for the inhibition in assay [7] and in assay [3] were 50% and under 50%, respectively.

In the case of `N=C(N)Nc1ncc(Cl)cc1Oc1ccccc1`, the inhibition constant Ki in assay [1] is 2.13 µM; in [2] it was 342 µM. The same compound yielded an inhibition in [3] of under 50%.

On to `N=C(N)Nc1ncc(Cl)cc1OCC(=O)O`, for which the inhibition in [4] and in assay [3] was under 50% throughout.

For the compound `N=C(N)Nc1ncc(Cl)cc1/C=C/C(=O)O`, the Ki in [8] was found to be 279 µM. The same compound showed an inhibition in assay [9] of under 50%.

On to `N=C(N)Nc1ncc(Cl)cc1/C=C/C1CCCCC1`, for which the affinity in assay [2] corresponds to a Ki of 71.5 µM. In [3], this compound returned an inhibition of under 50%.

Take `CNC(=O)/C=C/c1cc(Cl)cnc1N=C(N)N`: the inhibition in [4] and in assay [3] was under 50% in each case. Besides, the Ki in assay [1] is 1.28 µM.

Consider `NC(N)=Nc1ncc(Cl)cc1/C=C/c1cccc(C(=O)O)c1`, for which the Ki in assay [1] amounted to 0.17 µM; in assay [2] it was 52 µM.

Regarding `CN(Cc1ccccc1)C(=O)/C=C/c1cc(Cl)cnc1N=C(N)N`, the inhibition in assay [4] and in assay [3] was under 50% throughout. The compound further had a Ki in assay [1] of 2 µM.

Turning to `N=C(N)Nc1ncc(Cl)cc1CCC(=O)O`, the inhibition in assay [4] and in assay [3] was under 50% in each case.

For the compound `N=C(N)Nc1ncc(Cl)cc1-c1ccccc1`, the inhibition in assay [4] and in assay [3] was under 50% in each case. Besides, the inhibitory constant (Ki) in assay [1] is 166 µM.

For `N=C(N)Nc1ncc(Cl)cc1/C=C/C(=O)N1CCOCC1`, the inhibition in assay [4] and in [3] was under 50% in each case. In [1], this compound had an inhibitory constant (Ki) of 2.1 µM.

For the compound `N=C(N)Nc1ncc(Cl)cc1/C=C/c1ccccc1`, in [2], the affinity, expressed as Ki, was 53.8 µM. The compound further returned an inhibition in assay [3] of under 50%.

Turning to `COc1ccc(/C=C/c2cc(Cl)cnc2N=C(N)N)cc1`, the Ki in assay [1] worked out at 0.69 µM; in assay [2], 60.1 µM; in [5], 42.5 µM.

For the compound `N=C(N)Nc1ncc(Cl)cc1OCC(=O)NCc1ccccc1`, the inhibition in [4] and in assay [3] was under 50% throughout.
